Laboratory results taken from the NIST ThermoML archive (doi:10.1016/j.tca.2004.11.015).
± gives the expanded uncertainty stated by the source.

Settings: 101.33 kPa, Liquid, Vibrating tube method

NCCO [2-aminoethan-1-ol]
Settings | mass density [kg/m3]
281.15 K | 1025.55 ± 0.52
283.15 K | 1023.99 ± 0.52
285.15 K | 1022.42 ± 0.52
287.15 K | 1020.84 ± 0.52
289.15 K | 1019.26 ± 0.52
291.15 K | 1017.68 ± 0.52
293.15 K | 1016.1 ± 0.52
295.15 K | 1014.52 ± 0.51
297.15 K | 1012.94 ± 0.51
299.15 K | 1011.35 ± 0.51
301.15 K | 1009.76 ± 0.51
303.15 K | 1008.17 ± 0.51
305.15 K | 1006.58 ± 0.51
307.15 K | 1004.99 ± 0.51
309.15 K | 1003.4 ± 0.51
311.15 K | 1001.8 ± 0.51
313.15 K | 1000.21 ± 0.51
315.15 K | 998.6 ± 0.51
317.15 K | 997 ± 0.51
319.15 K | 995.4 ± 0.5
321.15 K | 993.79 ± 0.5
323.15 K | 992.19 ± 0.5
325.15 K | 990.58 ± 0.5
327.15 K | 988.96 ± 0.5
329.15 K | 987.34 ± 0.5
331.15 K | 985.72 ± 0.5
333.15 K | 984.1 ± 0.5
335.15 K | 982.48 ± 0.5
337.15 K | 980.85 ± 0.5
339.15 K | 979.21 ± 0.5
341.15 K | 977.58 ± 0.5
343.15 K | 975.94 ± 0.5
345.15 K | 974.3 ± 0.5
347.15 K | 972.65 ± 0.49
349.15 K | 970.99 ± 0.49
351.15 K | 969.34 ± 0.49
353.15 K | 967.68 ± 0.49

CO [methanol]
Settings | mass density [kg/m3]
283.15 K | 800.67 ± 0.15
288.15 K | 795.99 ± 0.15
293.15 K | 791.29 ± 0.15
298.15 K | 786.58 ± 0.15
303.15 K | 781.86 ± 0.16
308.15 K | 777.1 ± 0.16
313.15 K | 772.32 ± 0.16
318.15 K | 767.52 ± 0.16
323.15 K | 762.67 ± 0.17
328.15 K | 757.77 ± 0.17
333.15 K | 752.83 ± 0.17
